According to patent US6441023B1 (American Home Products Corporation, priority 1997, dated 2002):
Structures can show the parent of a compound that is named as a salt. Values belong to the molecule of their own block, whether it stands above or below them.

How the values were obtained:
MMP 1 = molecular target: T1, MMP 1 (Homo sapiens, UniProt P03956); test: In vitro collagenase assay (human recombinant fibroblast collagenase); type: biochemical; conditions: for IC50: read-out: MMP 1 IC 50; for inhibition at 10 µM: read-out: MMP 1 % inhibition at 10 micromolar (*)
T1 construct: human recombinant fibroblast collagenase (truncated, mw=18,828, WAR, Radnor)
T1 sequence (P03956 100-269 limits assumed): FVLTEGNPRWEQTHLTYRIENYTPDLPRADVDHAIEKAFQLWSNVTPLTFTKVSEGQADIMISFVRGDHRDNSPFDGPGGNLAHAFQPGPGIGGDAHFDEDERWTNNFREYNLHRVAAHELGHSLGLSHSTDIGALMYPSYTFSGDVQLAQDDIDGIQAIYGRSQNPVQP
Experimental: The assay is based on the cleavage of a peptide substrate ((Dnp-Pro-Cha-Gly-Cys(iNe)-His-Ala-Lys(NMa)-NH2), Peptide International, Inc.) by collag,enase releasing the fluorescent NMa group which is quantitated on the fluorometer. Dnp quenches the NiIa fluorescence in the intact substrate. […] Substrate is dissolved in methanol and stored frozen in 1 mM aliquots. Collagenase is stored frozen in buffer in 25 µM aliquots. For the assay, substrate is dissolved in HCBC buffer to a final concentration of 10 μM and collagenase to a final concentration of 5 nM. Compounds are dissolved in methanol, DMSO, or HCBC. The methanol and DMSO are diluted in HCBC to <1.0%. Compounds are added to the 96 well plate containing enzyme and the reaction is started by the addition of substrate.
The slope of the line is calculated and represents the reaction rate.
The mean (x±sem) of the control rate is calculated and compared for statistical significance (p<0.05) with drug-treated rates using Dunnett's multiple comparison test.

MMP 9 = molecular target: T2, MMP 9 (Homo sapiens, UniProt P14780); test: In vitro gelatinase assay (human neutrophil gelatinase B); type: biochemical; conditions: read-out: MMP 9 IC 50
T2 construct: from tissue; host or cells: human neutrophils
T2 sequence (P14780 94-707): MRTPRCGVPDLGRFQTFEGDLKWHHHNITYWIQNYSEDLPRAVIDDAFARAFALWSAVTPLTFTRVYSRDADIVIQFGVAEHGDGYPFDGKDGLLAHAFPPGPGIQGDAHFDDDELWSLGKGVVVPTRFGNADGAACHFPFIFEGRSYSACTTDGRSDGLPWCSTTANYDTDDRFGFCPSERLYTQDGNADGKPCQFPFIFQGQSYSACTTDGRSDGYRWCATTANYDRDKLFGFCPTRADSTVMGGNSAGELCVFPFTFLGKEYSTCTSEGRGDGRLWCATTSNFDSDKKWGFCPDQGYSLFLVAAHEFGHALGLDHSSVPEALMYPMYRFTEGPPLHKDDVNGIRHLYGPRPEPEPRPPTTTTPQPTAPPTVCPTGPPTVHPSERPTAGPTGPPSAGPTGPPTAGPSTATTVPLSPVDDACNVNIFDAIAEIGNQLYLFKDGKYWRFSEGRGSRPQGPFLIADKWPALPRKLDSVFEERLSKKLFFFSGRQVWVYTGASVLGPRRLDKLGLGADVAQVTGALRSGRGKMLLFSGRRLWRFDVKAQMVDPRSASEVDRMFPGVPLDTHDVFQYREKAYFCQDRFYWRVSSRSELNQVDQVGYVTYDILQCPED
Experimental: The assay is based on the cleavage of the thiopeptide substrate ((Ac-Pro-Leu-Gly(2 mercapto-4 methyl-pentanoyl)-Leu-Gly-OEt), Bachem Bioscience) by the enzyme, gelatinase, releasing the substrate product which reacts calorimetrically with DTNB ((5,5′-dithio-bis(2-nitro-benzoic acid)). The enzyme activity is measured by the rate of the color increase.
The thiopeptide substrate is made up fresh as a 20 mM stock in 100% DMSO and the DTNB is dissolved in 100% DMSO as a 100 mM stock and stored in dark at room temperature. Both the substrate and DTNB are diluted together to 1 mM with substrate buffer (50 mM HEPES pH 7.5, 5 mM CaCl2) before use. The stock of human neutrophil gelatinase B is diluted with assay buffer (50 mnM HEPES pH 7.5, 5 mM CaCl2, 0.02% Brij) to a final concentration of 0.15 mnM.
The increase in OD405 is plotted and the slope of the line is calculated which represents the reaction rate.

MMP 13 [1] = molecular target: T3, MMP 13 (Homo sapiens, UniProt P45452); test: MMP 13 inhibition (manual); type: biochemical; conditions: read-out: MMP 13 IC 50
TACE = molecular target: T4, TACE (Homo sapiens, UniProt P78536); test: Procedure for measuring TACE inhibition; type: biochemical; conditions: for IC50: read-out: TACE IC 50
T4 construct: purchased Immunex
T4 sequence (P78536 215-824): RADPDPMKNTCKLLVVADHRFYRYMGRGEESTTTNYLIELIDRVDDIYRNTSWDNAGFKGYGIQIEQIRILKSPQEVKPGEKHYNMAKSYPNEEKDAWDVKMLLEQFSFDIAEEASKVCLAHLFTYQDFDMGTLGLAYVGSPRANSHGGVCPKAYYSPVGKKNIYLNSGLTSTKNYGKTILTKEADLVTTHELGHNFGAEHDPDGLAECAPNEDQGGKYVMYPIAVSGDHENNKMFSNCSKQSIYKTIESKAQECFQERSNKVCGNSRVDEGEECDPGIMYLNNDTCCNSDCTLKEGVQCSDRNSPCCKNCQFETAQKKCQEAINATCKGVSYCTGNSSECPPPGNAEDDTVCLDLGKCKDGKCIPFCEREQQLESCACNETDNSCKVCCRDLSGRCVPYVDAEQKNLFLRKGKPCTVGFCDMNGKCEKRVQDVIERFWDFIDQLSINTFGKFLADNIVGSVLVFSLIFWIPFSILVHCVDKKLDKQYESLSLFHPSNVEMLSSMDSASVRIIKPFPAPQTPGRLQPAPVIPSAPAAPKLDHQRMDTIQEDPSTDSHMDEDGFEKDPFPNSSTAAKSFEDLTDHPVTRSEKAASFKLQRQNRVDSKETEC
Experimental: Using 96-well black microtiter plates, each well receives a solution composed of 10 μL TACE (Inmunex, final concentration 1 μg/mL), 70 μL Tris buffer, pH 7.4 containing 10% glycerol (final concentration 10 mM), and 10 μL of test compound solution in DMSO ([…], DMSO concentration <1%) and incubated for 10 minutes at room temperature. The reaction is initiated by addition of a fluorescent peptidyl substrate (final concentration 100 μM to each well and then shaking on a shaker for 5 sec.
The reaction is read (excitation 340 nm, emission 420 nm) for 10 min. and the increase in fluorescence over time is plotted as a linear line. The slope of the line is calculated and represents the reaction rate.
The mean (xtsem) of the control rate is calculated and compared for statistical significance (p<0.05) with drug-treated rates using Dunnett's multiple comparison test.

MMP 13 [2] = molecular target: T3, MMP 13; test: MMP 13 inhibition (HTS); type: biochemical

Molecule: CCCCOc1ccc(S(=O)(=O)C2(C(=O)NO)CCN(CC)CC2)cc1 [Example 245, 1-Ethyl-4-(4-butoxy-benzenesulfonyl)-piperidine-4-carboxylic acid hydroxyamide]
- IC50 (MMP 1): 7060 nM
- IC50 (MMP 9): 43.4 nM
- IC50 (MMP 13 [1]): 2.2 nM
- inhibition at 10 µM (TACE; read-out: TACE % inhibition at 10 micromolar (*)): 52%
- melting point: 98 °C

Molecule: CCCCCCC(C(=O)NO)S(=O)(=O)c1cccc(OC)c1 (stereo not shown) [Example 164, 2-(3-Methoxybenzenesulfonyl)tanoic acid hydroxyamide]
- MMP 13 % inhibition at 0.2 μM (HTS) (MMP 13 [2]): 74%

Molecule: CCCCCCC(SCCc1ccccn1)C(=O)NO (stereo not shown) [Example 173, 2-(2-Pyridin-2-yl-ethylsulfanyl)-octanoic acid hydroxyaride]
- MMP 13 % inhibition at 36 nM (HTS) (MMP 13 [2]): 18%

Molecule: CC(C)C(SCCc1ccccc1)C(=O)NO (stereo not shown) [Example 117, N-Hydroxy-3-methyl-2-phenethylsulfanyl-butyramide]
- inhibition at 1 µM (TACE; read-out: TACE % inhibition at 1 µM): 8.1%
- inhibition at 0.2 µM (MMP 13 [2]; read-out: MMP 13 % inhibition at 0.2 μM (HTS), 0.2 μM): 7%

Molecule: CCCC(Cc1ccc(OCCN2CCOCC2)cc1)(C(=O)NO)S(=O)(=O)c1ccc(OC)cc1 (stereo not shown) [Example 35, 2-(4-Methoxy-benzenesulfonyl)-2-[4-(2-morpholin-4-yl-ethoxy)-benzyl]-pentanoic acid hydroxyamide]
- IC50 (TACE): 44.9 nM
- melting point: 101 °C

Molecule: 2-(4-Acetylamino-benzenesufanyl)-N-hydroxy-3-phenyl-propionarnide [Example 129]
- MMP 13 % inhibition at 0.2 μM (HTS) (MMP 13 [2]): 90%

Molecule: CCCCCCC(SC1N=NN(c2ccccc2)N1)C(=O)NO (stereo not shown) [Example 174, 2-(2-Phenyl-5H-tetrazol-5-ylsulfanyl)-octanoic acid hydroxyanide]
- TACE % inhibition at 1 µM (TACE; 1 µM): 27.7%
- MMP 13 % inhibition at 36 nM (HTS) (MMP 13 [2]): 10%

Molecule: O=C(CCC(C(=O)NO)S(=O)(=O)c1ccccc1C(F)(F)F)NO (stereo not shown) [Example 139, 4-Hydroxycarbamoyl-4-(2-trifiuoromethyl-benzenesulfonyl)-butyric acid hydroxyamide]
- MMP 13 % inhibition at 0.2 μM (HTS) (MMP 13 [2]): 8%

Molecule: O=C(CCC(C(=O)NO)[S+]([O-])c1ccccc1C(F)(F)F)NO (stereo not shown) [Example 138, 4-Hydroxycarbamoyl-4-(2-triuoromethyl-benzenesulfmyl)-butyric acid hydroxyamide]
- MMP 13 % inhibition at 0.2 μM (HTS) (MMP 13 [2]): 20%

Molecule: CCCCOc1ccc(S(=O)(=O)C2(C(=O)NO)CCN(Cc3ccncc3)CC2)cc1 (as salt: HCl) [Example 269, 4-(4-Butoxy-benzenesulfonyl)-1-pyridin-4-ylmethyl-piperidine-4-carboxylic acid hydroxamide]
- melting point: 118 °C

Molecule: CCCCOc1ccc(S(=O)(=O)C2(C(=O)NO)CCN(Cc3cccc(OCCN4CCOCC4)c3)CC2)cc1 (as salt: HCl) [Example 243, 4(4-Butoxy-benzenesulfonyl)-1-[3-(2-morpholinyl-1-ylthoxy)-benzyl]-piperidine-4-carboxylic acid hydroxyamide]
- melting point: 123 °C

Molecule: C[S+]([O-])c1ccc([S+]([O-])C(COCc2ccccc2)C(=O)NO)cc1 (stereo not shown) [Example 147, 3-Benzyloxy-N-hydroxy-2-(4-methanesulfinyl-benzenesulfmyl)-propionamide]
- MMP 13 % inhibition at 0.2 μM (HTS) (MMP 13 [2]): 73%

Molecule: O=C(CCC(C(=O)NO)[S+]([O-])c1ccc(Br)cc1)NO (stereo not shown) [Example 135, 4-Hydroxycarbamoyl-4-(4-bromo-benzenesulfinyl)-butyric acid hydfoxyamide]
- MMP 13 % inhibition at 0.2 μM (HTS) (MMP 13 [2]): 79%

Molecule: CCCCOc1ccc(S(=O)(=O)C2(C(=O)NO)CCN(C)CC2)cc1 [Example 244, 1-Methyl-4-(4-butoxy-benzenesulfonyl)-piperidine-4-carboxylic acid hydroxyamide]
- IC50 (MMP 1): 3420 nM
- IC50 (MMP 9): 9.8 nM
- IC50 (MMP 13 [1]): 1.5 nM
- IC50 (TACE): 594 nM
- melting point: 118 °C

Molecule: CCCCOc1ccc(S(=O)(=O)C2(C(=O)NO)CCN(CCCC)CC2)cc1 [Example 246, 1-n-Butyl-4-(4-butoxy-benzenesulfonyl)-piperidine-4-carboxylic acid hydroxyamide]
- inhibition at 10 µM (MMP 1): 50.3%
- IC50 (MMP 9): 28.3 nM
- IC50 (MMP 13 [1]): 2.4 nM
- IC50 (TACE): 880 nM
- melting point: 121 °C

The next lines start with the values.

- MMP 13 % inhibition at 36 nM (HTS) (MMP 13 [2]): −18%
Molecule: CCCCCCC(C(=O)NO)S(=O)(=O)c1cccc2cccnc12 (stereo not shown) [Example 196, 2-(Quinoline-8-sulfonyl)-octanoic acid hydroxyamde]

- MMP 13 % inhibition at 36 nM (HTS) (MMP 13 [2]): −39%
Molecule: CCCCCCC(C(=O)NO)S(=O)(=O)CC1NC(=O)NC1=O (stereo not shown) [Example 198, 2-(2,5-Dioxo-inidazolidinylmethylsulfonyl)-octanoic acid hydroxyamide]

- inhibition at 10 µM (MMP 1): 48.2%
- IC50 (MMP 9): 2.7 nM
- IC50 (TACE): 277 nM
- melting point: 89 °C
Molecule: O=C(NO)C1(S(=O)(=O)c2ccc(OCc3ccccc3)cc2)CCN(Cc2ccccc2)CC1 [Example 241, 1-Benzyl-4-(4-benzyloxy-benzenesulfonyl)-piperidinefcarboxylic acid hydroxyamide]

- MMP 13 % inhibition at 36 nM (HTS) (MMP 13 [2]): −45%
Molecule: CCCCCCC(C(=O)NO)[S+]([O-])CC(=O)Nc1ccc2ccccc2c1 (stereo not shown) [Example 191, 2-(Naphthalen-2-ylcarbamoylmethanesulfimyl)-cmtanoic acid hydroxyamide]

- MMP 13 % inhibition at 36 nM (HTS) (MMP 13 [2]): −9%
Molecule: CCCCCCC(C(=O)NO)S(=O)(=O)c1nccs1 (stereo not shown) [Example 195, 2-(Thiazol-2-ylsulfonyl)-octanoic acid hydroxyamde]

- MMP 13 % inhibition at 36 nM (HTS) (MMP 13 [2]): 22%
Molecule: CCCCCCC(C(=O)NO)S(=O)(=O)c1ccc(OS(=O)(=O)c2ccccc2[N+](=O)[O-])cc1 (stereo not shown) [Example 238, 2-Nitro-benzenesulfonic acid 4-(1-hydroxycarbamoyl-heptylsulfonyl)-hydroxyamide]

- melting point: 117.8 °C
Molecule: CN1CCC(C(=O)NO)(S(=O)(=O)c2ccc(OCc3ccc(Cl)cc3)cc2)CC1 (as salt: HCl) [Example 264, [4-(4-Chloro-benzyloxy)benzenesulfonyl]-1-methylpiperidine-4-carboxylic acid hydroxamide]
